The compounds below were run on Pythium graminicola (assay: Test 4: control effect against damping-off disease of rice by Pythium (soil irrigation)). Conditions: 336 h, 1000 ppm test suspension, 2.5 ml soil irrigation, rice (Koshihikari) in contaminated soil, from degree of disease development.
Type: in vivo

| Structure (SMILES) | pest or weed control at 1000 ppm [%] |
| --- | --- |
| CS(=O)(=O)Oc1cccc2c1COC(c1csc(C3CCN(C(=O)Cc4cc(C(F)(F)F)ccc4C(F)(F)F)CC3)n1)OC2 (stereo not shown) [Compound 3-8, 4-[4-(6-methylsulfonyloxy-1,5-dihydro-3H-2,4-benzodioxepin-3-yl)-2-thiazolyl]-1-[2-[2,5-bis(trifluoromethyl)phenyl]acetyl]piperidine] | ≥ 90 |
| CS(=O)(=O)Oc1c(F)ccc2c1COC(c1csc(C3CCN(C(=O)Cn4nc(C(F)(F)F)cc4C(F)(F)F)CC3)n1)OC2 (stereo not shown) [Compound 2-48, 4-[4-(7-fluoro-6-methylsulfonyloxy-1,5-dihydro-3H-2,4-benzodioxepin-3-yl)-2-thiazolyl]-1-[2-[3,5-bis(trifluoromethyl)-1H-pyrazol-1-yl]acetyl]piperidine] | ≥ 90 |
| CS(=O)(=O)Oc1ccc(I)c2c1COC(c1csc(C3CCN(C(=O)Cc4cc(Cl)ccc4Cl)CC3)n1)OC2 (stereo not shown) [Compound 3-20, 4-[4-(6-iodo-9-methylsulfonyloxy-1,5-dihydro-3H-2,4-benzodioxepin-3-yl)-2-thiazolyl]-1-[2-(2,5-dichlorophenyl)acetyl]piperidine] | ≥ 90 |
| CS(=O)(=O)Oc1ccc(Br)c2c1COC(c1csc(C3CCN(C(=O)Cn4nc(C(F)(F)F)cc4C(F)(F)F)CC3)n1)OC2 (stereo not shown) [Compound 2-42, 4-[4-(6-bromo-9-methylsulfonyloxy-1,5-dihydro-3H-2,4-benzodioxepin-3-yl)-2-thiazolyl]-1-[2-[3,5-bis(trifluoromethyl)-1H-pyrazol-1-yl]acetyl]piperidine] | ≥ 90 |
| CS(=O)(=O)Oc1cccc2c1COC(c1csc(C3CCN(C(=O)Cn4nc(C(Cl)Cl)cc4C(Cl)Cl)CC3)n1)OC2 (stereo not shown) [Compound 2-38, 4-[4-(6-methylsulfonyloxy-1,5-dihydro-3H-2,4-benzodioxepin-3-yl)-2-thiazolyl]-1-[2-[3,5-bis(dichloromethyl)-1H-pyrazol-1-yl]acetyl]piperidine] | ≥ 90 |
| CS(=O)(=O)Oc1ccc(I)c2c1COC(c1csc(C3CCN(C(=O)Cn4nc(C(F)(F)F)cc4C(F)(F)F)CC3)n1)OC2 (stereo not shown) [Compound 2-46, 4-[4-(6-iodo-9-methylsulfonyloxy-1,5-dihydro-3H-2,4-benzodioxepin-3-yl)-2-thiazolyl]-1-[2-[3,5-bis(trifluoromethyl)-1H-pyrazol-1-yl]acetyl]piperidine] | ≥ 90 |
| CCCCS(=O)(=O)Oc1cccc2c1COC(c1csc(C3CCN(C(=O)Cc4cc(C)ccc4C)CC3)n1)OC2 (stereo not shown) [Compound 3-4, 4-[4-(6-butylsulfonyloxy-1,5-dihydro-3H-2,4-benzodioxepin-3-yl)-2-thiazolyl]-1-[2-(2,5-dimethylphenyl)acetyl]piperidine] | ≥ 90 |
| COc1ccc(OS(C)(=O)=O)c2c1COC(c1csc(C3CCN(C(=O)Cn4nc(C)cc4C)CC3)n1)OC2 (stereo not shown) [Compound 2-34, 4-[4-(6-methoxy-9-methylsulfonyloxy-1,5-dihydro-3H-2,4-benzodioxepin-3-yl)-2-thiazolyl]-1-[2-(3,5-dimethyl-1H-pyrazol-1-yl)acetyl]piperidine] | ≥ 90 |
| CS(=O)(=O)Oc1ccc(OS(C)(=O)=O)c2c1COC(c1csc(C3CCN(C(=O)Cn4nc(C(F)(F)F)cc4C(F)(F)F)CC3)n1)OC2 [Compound 2-54, 4-[4-[6,9-bis(methylsulfonyloxy)-1,5-dihydro-3H-2,4-benzodioxepin-3-yl]-2-thiazolyl]-1-[2-[3,5-bis(trifluoromethyl)-1H-pyrazol-1-yl]acetyl]piperidine] | ≥ 90 |
| Cc1ccc(C)c(CC(=O)N2CCC(c3nc(C4OCc5c(OS(C)(=O)=O)cc(C)c(C)c5CO4)cs3)CC2)c1 (stereo not shown) [Compound 3-9, 4-[4-(6,7-dimethyl-9-methylsulfonyloxy-1,5-dihydro-3H-2,4-benzodioxepin-3-yl)-2-thiazolyl]-1-[2-(2,5-dimethylphenyl)acetyl]piperidine] | ≥ 90 |
| CS(=O)(=O)Oc1c(F)ccc2c1COC(c1csc(C3CCN(C(=O)Cn4nc(C(F)F)cc4C(F)F)CC3)n1)OC2 (stereo not shown) [Compound 2-49, 4-[4-(7-fluoro-6-methylsulfonyloxy-1,5-dihydro-3H-2,4-benzodioxepin-3-yl)-2-thiazolyl]-1-[2-[3,5-bis(difluoromethyl)-1H-pyrazol-1-yl]acetyl]piperidine] | ≥ 90 |
| COc1ccc(OS(C)(=O)=O)c2c1COC(c1csc(C3CCN(C(=O)Cn4nc(Cl)cc4Cl)CC3)n1)OC2 (stereo not shown) [Compound 2-33, 4-[4-(6-methoxy-9-methylsulfonyloxy-1,5-dihydro-3H-2,4-benzodioxepin-3-yl)-2-thiazolyl]-1-[2-(3,5-dichloro-1H-pyrazol-1-yl)acetyl]piperidine] | ≥ 90 |
| CS(=O)(=O)Oc1c(F)ccc2c1COC(c1csc(C3CCN(C(=O)Cc4cc(Cl)ccc4Cl)CC3)n1)OC2 (stereo not shown) [Compound 3-19, 4-[4-(7-fluoro-6-methylsulfonyloxy-1,5-dihydro-3H-2,4-benzodioxepin-3-yl)-2-thiazolyl]-1-[2-(2,5-dichlorophenyl)acetyl]piperidine] | ≥ 90 |

Source: patent US11274076B2, “Process for preparing 1, 2-benzenedimethanol compound” (GOWAN COMPANY, L.L.C., priority 2016, dated 2022)
